Measurements published in US20210323976A1, “HETEROARYL COMPOUNDS FOR KINASE INHIBITION” (ARIAD Pharmaceuticals, Inc., priority 2015, published 2021).

Tests used:
Type in all cases: cell-based
[1] = biological target: T1, EGFR exon 20 ASV insertion (V769_D770insASV) (Homo sapiens, UniProt P00533, INS769ASV); assay: Ba/F3-EGFR-Exon20-ASV cell anti-proliferation assay (MTS, CellTiter 96 AQueous One); conditions: Ba/F3-EGFR-Exon20-ASV cells, 72 h, MTS signal
T1 construct: expressed in transfected cells; host or cells: Ba/F3 (murine pro-B) cells, lentiviral transduction with pLVX-IRES puro
T1 sequence (P00533 with tags, fused parts or gaps INS769ASV): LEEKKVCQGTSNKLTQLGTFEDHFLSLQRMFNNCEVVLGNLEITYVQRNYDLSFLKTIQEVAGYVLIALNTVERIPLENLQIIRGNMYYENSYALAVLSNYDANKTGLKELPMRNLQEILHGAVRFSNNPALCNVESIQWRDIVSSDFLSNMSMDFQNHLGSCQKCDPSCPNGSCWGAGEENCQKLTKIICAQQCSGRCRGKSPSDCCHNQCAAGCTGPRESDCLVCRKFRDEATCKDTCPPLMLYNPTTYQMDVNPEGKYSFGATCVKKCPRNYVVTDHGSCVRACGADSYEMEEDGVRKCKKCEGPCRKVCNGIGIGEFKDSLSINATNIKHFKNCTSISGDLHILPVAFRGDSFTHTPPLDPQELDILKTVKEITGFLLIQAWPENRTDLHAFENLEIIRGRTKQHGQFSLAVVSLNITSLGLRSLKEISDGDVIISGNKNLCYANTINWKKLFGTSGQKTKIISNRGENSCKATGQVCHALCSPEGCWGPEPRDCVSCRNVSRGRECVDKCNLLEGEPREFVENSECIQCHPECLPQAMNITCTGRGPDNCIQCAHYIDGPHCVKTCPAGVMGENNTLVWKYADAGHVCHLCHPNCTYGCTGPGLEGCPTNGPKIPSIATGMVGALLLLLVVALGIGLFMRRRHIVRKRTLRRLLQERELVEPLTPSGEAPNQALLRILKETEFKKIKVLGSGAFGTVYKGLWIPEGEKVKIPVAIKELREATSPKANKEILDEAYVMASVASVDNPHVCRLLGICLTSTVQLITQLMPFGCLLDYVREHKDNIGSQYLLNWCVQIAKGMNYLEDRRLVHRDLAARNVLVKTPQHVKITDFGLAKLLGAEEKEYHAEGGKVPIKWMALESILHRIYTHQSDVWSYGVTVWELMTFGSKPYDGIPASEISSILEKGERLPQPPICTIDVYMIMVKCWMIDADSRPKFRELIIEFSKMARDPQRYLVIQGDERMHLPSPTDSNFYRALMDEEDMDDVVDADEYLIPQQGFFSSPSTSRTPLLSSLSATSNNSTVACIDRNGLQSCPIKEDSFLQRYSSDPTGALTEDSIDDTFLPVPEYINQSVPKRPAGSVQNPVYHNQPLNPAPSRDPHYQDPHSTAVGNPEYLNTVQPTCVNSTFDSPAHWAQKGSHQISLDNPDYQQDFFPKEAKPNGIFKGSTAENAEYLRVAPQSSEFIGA
From the text: (§1) A compound's ability in selectively inhibiting EGFR exon 20 insertion mutations can be assessed using Ba/F3 cells, a murine pro-B cell line, which have been transduced with EGFR exon 20 insertions. An expression vector, pLVX-IRES puro (Clontech) coding for human EGFR exon 20 insertions NPG (H773_V774insNPG) or ASV (V769_D770insASV), was transfected into HEK293 cells by the Trans-Lentiviral ORF Packaging System (Thermo Scientific), to produce virus encoding EGFR exon 20 insertions. Ba/F3 (DSMZ) cells maintained in RPM11640 medium supplemented with 10% fetal bovine serum, 200 pM L-glutamine/200 µg/mL penicillin/200 µg/mL streptomycin (Life Technology) and 10 ng/mL IL-3 (R&D system), were infected by EGFR Exon20 virus and subsequently selected by puromycin (Life Technology) selection and IL-3 depletion. Ba/F3 cells expressing EGFR exon 20 insertions (named Ba/F3-EGFR-Exon20-NPG or Ba/F3-EGFR-Exon20-ASV) can proliferate in the absence of IL-3. The anti-proliferative activity of compounds were determined as follows: BaF3-EGFR-Exon20 cells (NPG or ASV) seeded in 96 well plates (2500 cells/well) were treated with test compound (dissolved in DMSO) at a series of concentrations (4-fold dilution, top concentration: 10,000 nM). The plates were incubated for 72 h in a 37° C. incubator with 5% CO2, and the number of viable cells in each well were measured indirectly by CellTiter 96® Aqueous One Solution Cell Proliferation Assay (Promega) This assay is a colorimetric method for determining the number of viable cells through measurement of their metabolic activity by detection of enzymatic conversion of tetrazolium salts into blue formazan derivatives. Reagent (20 pL) was added into each well, and the plates were returned to the incubator for 2 h. The absorbance in each well was then measured at 490 nm using an Envision plate reader (Perkin Elmer). IC50 values were calculated by determining the concentration of compound required to decrease the MTS signal by 50% comparing to the DMSO control in best-fit curves using Microsoft XLfit software or Accelrys Pipeline Pilot.

[2] = biological target: EGFR exon 20 NPG insertion (H773_V774insNPG) (Homo sapiens, UniProt P00533, cells depend on it, form not given); assay: Ba/F3-EGFR-Exon20-NPG cell anti-proliferation assay (MTS, CellTiter 96 AQueous One); conditions: 72 h, MTS signal
Sequence of EGFR exon 20 NPG insertion (H773_V774insNPG) (P00533 with tags, fused parts or gaps INS772GNP, form open): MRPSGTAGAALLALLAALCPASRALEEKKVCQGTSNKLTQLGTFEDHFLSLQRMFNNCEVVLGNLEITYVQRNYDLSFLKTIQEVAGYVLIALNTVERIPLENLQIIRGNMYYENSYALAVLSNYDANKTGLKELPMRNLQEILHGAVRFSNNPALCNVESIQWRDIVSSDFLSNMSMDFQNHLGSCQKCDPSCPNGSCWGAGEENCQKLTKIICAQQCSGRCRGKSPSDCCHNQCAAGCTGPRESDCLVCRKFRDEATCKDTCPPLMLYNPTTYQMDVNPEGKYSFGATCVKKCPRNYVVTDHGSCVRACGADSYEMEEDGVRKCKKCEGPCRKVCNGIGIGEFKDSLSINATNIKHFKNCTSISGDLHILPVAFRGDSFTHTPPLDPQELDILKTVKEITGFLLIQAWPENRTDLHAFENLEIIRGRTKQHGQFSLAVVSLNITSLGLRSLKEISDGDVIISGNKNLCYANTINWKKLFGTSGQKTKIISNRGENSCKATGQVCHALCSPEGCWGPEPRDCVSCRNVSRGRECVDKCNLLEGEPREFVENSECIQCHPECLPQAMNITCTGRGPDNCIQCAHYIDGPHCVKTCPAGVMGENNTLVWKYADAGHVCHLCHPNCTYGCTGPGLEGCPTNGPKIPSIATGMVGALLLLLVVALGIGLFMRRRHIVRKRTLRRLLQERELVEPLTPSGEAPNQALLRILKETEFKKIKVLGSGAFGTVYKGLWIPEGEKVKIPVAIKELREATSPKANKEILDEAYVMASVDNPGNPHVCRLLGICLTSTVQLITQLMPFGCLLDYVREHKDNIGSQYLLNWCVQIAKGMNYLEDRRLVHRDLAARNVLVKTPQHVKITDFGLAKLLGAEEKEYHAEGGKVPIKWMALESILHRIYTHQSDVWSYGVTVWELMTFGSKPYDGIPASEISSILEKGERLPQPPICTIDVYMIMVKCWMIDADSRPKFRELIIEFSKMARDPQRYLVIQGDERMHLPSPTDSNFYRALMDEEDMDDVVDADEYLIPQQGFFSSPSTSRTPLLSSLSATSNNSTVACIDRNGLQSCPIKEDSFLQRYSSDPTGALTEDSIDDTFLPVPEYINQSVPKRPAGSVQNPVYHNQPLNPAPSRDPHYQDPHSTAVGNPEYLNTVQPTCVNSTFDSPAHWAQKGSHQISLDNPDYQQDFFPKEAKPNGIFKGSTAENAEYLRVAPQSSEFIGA
From the text: as §1

[3] = biological target: T2, EGFR exon 19 deletion (E746-A750) and T790M mutation (Homo sapiens, UniProt P00533, DEL746-750/T790M); assay: Ba/F3-EGFR-Del/T790M cell anti-proliferation assay (MTS); conditions: Ba/F3-EGFR-Del/T790M cells, 72 h, MTS signal
T2 construct: expressed in transfected cells; host or cells: Ba/F3 (murine pro-B) cells, lentiviral transduction with pLVX-IRES puro
T2 sequence (P00533 with tags, fused parts or gaps DEL746-750/T790M): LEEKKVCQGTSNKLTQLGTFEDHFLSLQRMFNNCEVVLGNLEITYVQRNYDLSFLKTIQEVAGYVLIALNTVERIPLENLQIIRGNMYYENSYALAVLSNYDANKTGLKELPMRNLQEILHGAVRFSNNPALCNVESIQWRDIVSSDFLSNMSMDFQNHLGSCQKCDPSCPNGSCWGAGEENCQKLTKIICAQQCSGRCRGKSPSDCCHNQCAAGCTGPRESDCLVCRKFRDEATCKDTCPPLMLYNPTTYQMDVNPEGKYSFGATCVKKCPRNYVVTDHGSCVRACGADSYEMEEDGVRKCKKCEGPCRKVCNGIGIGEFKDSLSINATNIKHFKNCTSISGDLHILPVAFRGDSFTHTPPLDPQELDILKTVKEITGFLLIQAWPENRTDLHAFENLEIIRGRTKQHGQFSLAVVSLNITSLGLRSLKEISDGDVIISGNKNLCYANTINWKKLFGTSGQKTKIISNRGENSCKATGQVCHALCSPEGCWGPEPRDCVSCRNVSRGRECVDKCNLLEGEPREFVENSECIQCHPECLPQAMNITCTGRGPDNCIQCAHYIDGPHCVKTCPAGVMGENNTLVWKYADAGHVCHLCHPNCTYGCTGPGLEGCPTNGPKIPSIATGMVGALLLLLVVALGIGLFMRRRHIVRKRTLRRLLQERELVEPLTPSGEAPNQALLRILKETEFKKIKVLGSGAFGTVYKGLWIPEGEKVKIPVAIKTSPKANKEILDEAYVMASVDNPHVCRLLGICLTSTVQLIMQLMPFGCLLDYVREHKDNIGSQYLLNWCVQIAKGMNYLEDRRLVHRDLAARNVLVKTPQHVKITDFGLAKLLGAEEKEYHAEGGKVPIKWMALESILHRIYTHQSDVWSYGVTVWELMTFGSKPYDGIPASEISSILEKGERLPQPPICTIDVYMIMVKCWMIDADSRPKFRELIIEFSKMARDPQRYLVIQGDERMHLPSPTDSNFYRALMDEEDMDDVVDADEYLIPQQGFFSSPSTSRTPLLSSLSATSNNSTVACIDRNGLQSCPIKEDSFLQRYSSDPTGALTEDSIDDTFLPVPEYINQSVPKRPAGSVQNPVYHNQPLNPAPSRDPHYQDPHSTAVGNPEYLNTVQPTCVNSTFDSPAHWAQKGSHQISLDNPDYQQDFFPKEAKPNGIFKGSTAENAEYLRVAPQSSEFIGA
From the text: A compound's ability in selectively inhibiting EGFR exon 19 deletion and T790M concurrent mutations can be assessed using Ba/F3 cells, a murine pro-B cell line, which have been transduced with EGFR exon 19 deletion and T790M mutation. An expression vector, pLVX-IRES puro (Clontech) coding for human EGFR E746-A750 deletion and T790M Mutation, was transfected into HEK293 cells by the Trans-Lentiviral ORF Packaging System (Thermo Scientific), to produce virus encoding EGFR exon 19 deletion and T790M mutations. Ba/F3 (DSMZ) cells maintained in RPM11640 medium supplemented with 10% fetal bovine serum, 200 pM L-glutamine/200 μg/mL penicillin/200 μg/mL streptomycin (Life Technology) and 10 ng/mL IL-3 (R&D system), were infected by EGFR E746-A750 deletion and T790M Mutation virus and subsequently selected by puromycin (Life Technology) selection and IL-3 depletion. Ba/F3 cells expressing EGFR E746-A750 deletion and T790M Mutation (named Ba/F3-EGFR-Del/T790M) can proliferate in the absence of IL-3. The anti-proliferative activity of compounds was determined as follows: BaF3-EGFR-Del/T790M cells seeded in 96 well plates (2500 cells/well) were treated with test compound (dissolved in DMSO) at a series of concentrations (4-fold dilution, top concentration: 10,000 nM). The plates were incubated for 72 h in a 37° C. incubator with 5% CO2, and the number of viable cells in each well were measured indirectly by CellTiter 96® Aqueous One Solution Cell Proliferation Assay (Promega; this assay is a colorimetric method for determining the number of viable cells through measurement of their metabolic activity by detection of enzymatic conversion of tetrazolium salts into blue formazan derivatives). Reagent (20 pL) was added into each well, and the plates were returned to the incubator for 2 h. The absorbance in each well was then measured at 490 nm using an Envision plate reader (Perkin Elmer). IC50 values were calculated by determining the concentration of compound required to decrease the MTS signal by 50% comparing to the DMSO control in best-fit curves using Microsoft XLfit software or Accelrys Pipeline Pilot.

[4] = biological target: T3, Her2 exon 20 YVMA insertion (A775_G776ins YVMA) (Homo sapiens, UniProt P04626, INS775YVMA); assay: Ba/F3-Her2 Exon20 YVMA cell anti-proliferation assay (MTS); conditions: Ba/F3-Her2 Exon20 YVMA cells, 72 h, MTS signal
T3 construct: expressed in transfected cells; host or cells: Ba/F3 (murine pro-B) cells, lentiviral transduction with pLVX-IRES puro
T3 sequence (P04626 with tags, fused parts or gaps INS775YVMA): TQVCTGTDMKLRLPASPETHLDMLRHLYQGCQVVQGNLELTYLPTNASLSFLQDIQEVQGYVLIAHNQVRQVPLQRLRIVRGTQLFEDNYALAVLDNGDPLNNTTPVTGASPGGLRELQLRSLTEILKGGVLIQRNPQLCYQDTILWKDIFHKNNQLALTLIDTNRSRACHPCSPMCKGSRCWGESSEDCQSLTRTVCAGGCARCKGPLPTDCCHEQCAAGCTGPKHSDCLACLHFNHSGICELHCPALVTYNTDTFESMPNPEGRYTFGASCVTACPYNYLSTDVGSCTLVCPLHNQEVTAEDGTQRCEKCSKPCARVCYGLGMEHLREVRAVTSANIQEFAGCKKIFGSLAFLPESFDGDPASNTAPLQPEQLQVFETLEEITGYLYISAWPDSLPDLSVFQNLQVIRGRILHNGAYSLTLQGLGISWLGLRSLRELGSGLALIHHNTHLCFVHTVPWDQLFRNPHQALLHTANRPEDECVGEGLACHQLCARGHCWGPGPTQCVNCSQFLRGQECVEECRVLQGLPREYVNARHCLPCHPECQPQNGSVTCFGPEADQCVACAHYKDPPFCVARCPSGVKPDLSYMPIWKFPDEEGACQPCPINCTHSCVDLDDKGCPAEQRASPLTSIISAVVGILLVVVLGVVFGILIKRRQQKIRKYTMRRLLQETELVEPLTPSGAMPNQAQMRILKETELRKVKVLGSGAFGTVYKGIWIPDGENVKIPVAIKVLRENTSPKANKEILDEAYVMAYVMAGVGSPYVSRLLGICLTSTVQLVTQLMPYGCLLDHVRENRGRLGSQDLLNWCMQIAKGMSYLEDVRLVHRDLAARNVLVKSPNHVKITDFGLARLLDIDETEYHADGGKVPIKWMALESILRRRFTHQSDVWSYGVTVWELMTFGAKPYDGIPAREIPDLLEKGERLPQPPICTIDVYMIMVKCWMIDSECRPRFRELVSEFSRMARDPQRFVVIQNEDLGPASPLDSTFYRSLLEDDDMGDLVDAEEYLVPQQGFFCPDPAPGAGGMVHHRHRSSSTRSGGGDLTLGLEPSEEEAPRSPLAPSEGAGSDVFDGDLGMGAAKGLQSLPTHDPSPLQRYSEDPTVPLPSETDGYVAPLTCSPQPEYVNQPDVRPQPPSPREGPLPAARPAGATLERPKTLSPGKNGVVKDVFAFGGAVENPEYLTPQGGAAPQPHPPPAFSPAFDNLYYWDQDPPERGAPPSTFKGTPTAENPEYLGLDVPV
From the text: A compound's ability in selectively inhibiting Her2 exon 20 YVMA insertion mutations can be assessed using Ba/F3 cells, a murine pro-B cell line, which have been transduced with Her2 Exon20 YVMA insertions. An expression vector, pLVX-IRES puro (Clontech) coding for human EGFR exon 20 insertions YVMA (A775_G776ins YVMA), was transfected into HEK293 cells by the Trans-Lentiviral ORF Packaging System (Thermo Scientific), to produce virus encoding EGFR exon 20 insertions. Ba/F3 (DSMZ) cells maintained in RPM11640 medium supplemented with 10% fetal bovine serum, 200 pM L-glutamine/200 μg/mL penicillin/200 μg/mL streptomycin (Life Technology) and 10 ng/mL IL-3 (R&D system), were infected by EGFR Exon20 virus and subsequently selected by puromycin (Life Technology) selection and IL-3 depletion. Ba/F3 cells expressing Her2 Exon20 YVMA insertions (named Ba/F3-Her2 Exon20 YVMA) can proliferate in the absence of IL-3. The anti-proliferative activity of compounds was determined as follows: BaF3-Her2 Exon20 YVMA cells seeded in 96 well plates (2500 cells/well) were treated with test compound (dissolved in DMSO) at a series of concentrations (4-fold dilution, top concentration: 10,000 nM). The plates were incubated for 72 h in a 37° C. incubator with 5% CO2, and the number of viable cells in each well were measured indirectly by CellTiter 96® Aqueous One Solution Cell Proliferation Assay (Promega; this assay is a colorimetric method for determining the number of viable cells through measurement of their metabolic activity by detection of enzymatic conversion of tetrazolium salts into blue formazan derivatives). Reagent (20 pL) was added into each well, and the plates were returned to the incubator for 2 h. The absorbance in each well was then measured at 490 nm using an Envision plate reader (Perkin Elmer). IC50 values were calculated by determining the concentration of compound required to decrease the MTS signal by 50% comparing to the DMSO control in best-fit curves using Microsoft XLfit software or Accelrys Pipeline Pilot.

IC50 [1] [nM]	IC50 [2] [nM]	IC50 [4] [nM]	Compound	EGFR exon 19 deletion and T790M mutation IC50 [3]
100 to 500	< 100	100 to 500	C=CC(=O)Nc1cc(Nc2ncc(C#N)c(-c3c4n(c5ccccc35)CCOC4)n2)c(OC)cc1N(C)CCN(C)C [Example 8, N-(5-((5-cyano-4-(3,4-dihydro-1H-[1,4]oxazino[4,3-a]indol-10-yl)pyrimidin-2-yl)amino)-2-((2-(dimethylamino)ethyl)(methyl)amino)-4-methoxyphenyl)acrylamide]	A (Group A compounds have an IC50 value for the indicated mutant below about 100 nM)
> 1000	500 to 1000	> 1000	C=CC(=O)Nc1cc(Nc2ncc(Cl)c(-c3c4n(c5ccccc35)CCOC4)n2)c(OC)cc1N(C)CCN(C)C [Example 9, N-(5-((5-chloro-4-(3,4-dihydro-1H-[1,4]oxazino[4,3-a]indol-10-yl)pyrimidin-2-yl)amino)-2-((2-(dimethylamino)ethyl)(methyl)amino)-4-methoxyphenyl)acrylamide]	A (Group A compounds have an IC50 value for the indicated mutant below about 100 nM)
